From publication PMC5218480 (PLoS ONE, 2017) come the findings set out here.

The test has as its system MV-4-11 cells. In words: Gene expression microarray analysis (Affymetrix PrimeView) and GSEA. The format is cell-based, human. More on the design: RFU PODN (11730768_x_at) / Fold change /veh PODN (11730768_x_at) / RFU LINC00158 (11744669_a_at) / Fold change /veh LINC00158 (11744669_a_at) / RFU DUSP10 (11751237_a_at) / Fold change /veh DUSP10 (11751237_a_at) / RFU ID3 (11757404_x_at) / Fold change /veh ID3 (11757404_x_at) / RFU PLEKHG5 (11737974_s_at) / Fold change /veh PLEKHG5 (11737974_s_at) / RFU LRRC4B (11730491_at) / Fold change /veh LRRC4B (11730491_at) / RFU GIMAP4 (11747438_a_at) / Fold change /veh GIMAP4 (11747438_a_at) / RFU KRT8 (11758183_x_at) / Fold change /veh KRT8 (11758183_x_at) / RFU CNN1 (11734310_a_at) / Fold change /veh CNN1 (11734310_a_at) / RFU VPS37D (11726825_at) / Fold change /veh VPS37D (11726825_at) / RFU C10orf10 (11716522_x_at) / Fold change /veh C10orf10 (11716522_x_at) / RFU KIR2DL2 /// KIR2DL4 /// KIR2DL5A /// KIR2DL5B /// KIR2DS1 /// KIR2DS2 /// KIR2DS3 /// KIR2DS4 /// KIR3DL3 /// KIR3DL3 /// KIR3DS1 (11738374_at) / Fold change /veh KIR2DL2 /// KIR2DL4 /// KIR2DL5A /// KIR2DL5B /// KIR2DS1 /// KIR2DS2 /// KIR2DS3 /// KIR2DS4 /// KIR3DL3 /// KIR3DL3 /// KIR3DS1 (11738374_at) / RFU C1QL1 (11718748_at) / Fold change /veh C1QL1 (11718748_at) / RFU TMPRSS4 (11747572_a_at) / Fold change /veh TMPRSS4 (11747572_a_at) / RFU HAMP (11756126_x_at) / Fold change /veh HAMP (11756126_x_at) / RFU RNFT2 (11725882_a_at) / Fold change /veh RNFT2 (11725882_a_at) / RFU NR4A2 (11747474_a_at) / Fold change /veh NR4A2 (11747474_a_at) / RFU ABCC12 (11746883_a_at) / Fold change /veh ABCC12 (11746883_a_at) / RFU TMEM136 (11760407_x_at) / Fold change /veh TMEM136 (11760407_x_at) / RFU CLDN22 /// WWC2 (11732394_at) / Fold change /veh CLDN22 /// WWC2 (11732394_at) / RFU HLA-DPB1 (11760878_x_at) / Fold change /veh HLA-DPB1 (11760878_x_at) / RFU SPINT1 (11716480_a_at) / Fold change /veh SPINT1 (11716480_a_at) / RFU GAP43 (11754022_s_at) / Fold change /veh GAP43 (11754022_s_at) / RFU A4GNT (11735810_at) / Fold change /veh A4GNT (11735810_at) / RFU PRB3 (11715151_x_at) / Fold change /veh PRB3 (11715151_x_at) / RFU TUBB4B (11761932_at) / Fold change /veh TUBB4B (11761932_at) / RFU CAPN14 (11732068_a_at) / Fold change /veh CAPN14 (11732068_a_at) / RFU TMCC2 (11721928_a_at) / Fold change /veh TMCC2 (11721928_a_at) / RFU IRGQ (11745062_a_at) / Fold change /veh IRGQ (11745062_a_at) / RFU FAM174B (11720279_a_at) / Fold change /veh FAM174B (11720279_a_at) / RFU TMPRSS4 (11748680_a_at) / Fold change /veh TMPRSS4 (11748680_a_at) / RFU FAM212B (11763350_a_at) / Fold change /veh FAM212B (11763350_a_at) / RFU PLEKHG5 (11743358_a_at) / Fold change /veh PLEKHG5 (11743358_a_at) / RFU ZSCAN30 (11745921_a_at) / Fold change /veh ZSCAN30 (11745921_a_at) / RFU CMKLR1 (11741424_a_at) / Fold change /veh CMKLR1 (11741424_a_at) / RFU LOC101060620 /// MAPK8IP1 (11723275_at) / Fold change /veh LOC101060620 /// MAPK8IP1 (11723275_at) / RFU SPTSSB (11747773_x_at) / Fold change /veh SPTSSB (11747773_x_at) / RFU PRSS12 (11739890_at) / Fold change /veh PRSS12 (11739890_at) / RFU BIN1 (11741810_x_at) / Fold change /veh BIN1 (11741810_x_at) / RFU WNT11 (11732464_a_at) / Fold change /veh WNT11 (11732464_a_at) / RFU C10orf10 (11716521_a_at) / Fold change /veh C10orf10 (11716521_a_at) / RFU C5orf56 (11738089_at) / Fold change /veh C5orf56 (11738089_at) / RFU CYB561 (11721691_x_at) / Fold change /veh CYB561 (11721691_x_at) / RFU ANKRD19P (11752326_a_at) / Fold change /veh ANKRD19P (11752326_a_at) / RFU OR2T12 /// OR2T33 /// OR2T8 (11738714_s_at) / Fold change /veh OR2T12 /// OR2T33 /// OR2T8 (11738714_s_at) / RFU VCAN (11748164_a_at) / Fold change /veh VCAN (11748164_a_at) / RFU JSRP1 (11732532_at) / Fold change /veh JSRP1 (11732532_at) / RFU KRTAP10-11 (11738290_x_at) / Fold change /veh KRTAP10-11 (11738290_x_at) / RFU MYO3A (11730013_a_at) / Fold change /veh MYO3A (11730013_a_at) / RFU EBF3 (11725865_a_at) / Fold change /veh EBF3 (11725865_a_at) / RFU CAMK2N1 (11719241_x_at) / Fold change /veh CAMK2N1 (11719241_x_at) / RFU C5orf56 (11738088_a_at) / Fold change /veh C5orf56 (11738088_a_at) / RFU OLFML3 (11715873_a_at) / Fold change /veh OLFML3 (11715873_a_at) / RFU LOC100653217 /// NTM (11731650_a_at) / Fold change /veh LOC100653217 /// NTM (11731650_a_at) / RFU MAPK11 (11762145_a_at) / Fold change /veh MAPK11 (11762145_a_at) / RFU FIZ1 (11724087_x_at) / Fold change /veh FIZ1 (11724087_x_at) / RFU OASL (11726364_x_at) / Fold change /veh OASL (11726364_x_at) / RFU SOX15 (11748057_x_at) / Fold change /veh SOX15 (11748057_x_at) / RFU CD79A (11719716_a_at) / Fold change /veh CD79A (11719716_a_at) / RFU HIST1H1D (11736915_at) / Fold change /veh HIST1H1D (11736915_at) / RFU CASKIN2 (11723855_a_at) / Fold change /veh CASKIN2 (11723855_a_at) / RFU LOC730098 (11760151_x_at) / Fold change /veh LOC730098 (11760151_x_at) / RFU OR4N2 (11742367_at) / Fold change /veh OR4N2 (11742367_at) / RFU PRRT2 (11749266_a_at) / Fold change /veh PRRT2 (11749266_a_at) / RFU SNX32 (11753110_a_at) / Fold change /veh SNX32 (11753110_a_at) / RFU CDHR5 (11726645_a_at) / Fold change /veh CDHR5 (11726645_a_at) / RFU RCAN1 (11760418_a_at) / Fold change /veh RCAN1 (11760418_a_at) / RFU FAM167A (11723789_a_at) / Fold change /veh FAM167A (11723789_a_at) / RFU FAM26E (11764081_at) / Fold change /veh FAM26E (11764081_at) / RFU ISYNA1 (11749810_s_at) / Fold change /veh ISYNA1 (11749810_s_at) / RFU ACY1 (11761880_at) / Fold change /veh ACY1 (11761880_at) / RFU 11764098_at / Fold change /veh 11764098_at / RFU SAMD14 (11745864_x_at) / Fold change /veh SAMD14 (11745864_x_at) / RFU NPB (11741838_a_at) / Fold change /veh NPB (11741838_a_at) / RFU TMPRSS6 (11731388_a_at) / Fold change /veh TMPRSS6 (11731388_a_at) / RFU KRTAP10-2 (11738614_at) / Fold change /veh KRTAP10-2 (11738614_at) / RFU ARHGAP8 /// PRR5-ARHGAP8 (11727945_x_at) / Fold change /veh ARHGAP8 /// PRR5-ARHGAP8 (11727945_x_at) / RFU KRTAP5-7 /// NADSYN1 (11734609_at) / Fold change /veh KRTAP5-7 /// NADSYN1 (11734609_at) / RFU RASL12 (11751679_a_at) / Fold change /veh RASL12 (11751679_a_at) / RFU CDKN2B (11736163_a_at) / Fold change /veh CDKN2B (11736163_a_at) / RFU PRF1 (11729649_at) / Fold change /veh PRF1 (11729649_at) / RFU, ZNF638 /// ZNF638-IT1 / Fold change vs veh, ZNF638 /// ZNF638-IT1 / RFU, PANK3 / Fold change vs veh, PANK3 / RFU, SH3YL1 / Fold change vs veh, SH3YL1 / RFU, ZEB2 / Fold change vs veh, ZEB2 / RFU, NRIP1 / Fold change vs veh, NRIP1 / RFU, PTTG1IP / Fold change vs veh, PTTG1IP / RFU, CAPN2 / Fold change vs veh, CAPN2 / RFU, MED14 / Fold change vs veh, MED14 / RFU, SNORA58 / Fold change vs veh, SNORA58 / RFU, C1orf63 / Fold change vs veh, C1orf63 / RFU, LRRFIP1 / Fold change vs veh, LRRFIP1 / RFU, NDUFAF7 / Fold change vs veh, NDUFAF7 / RFU, SLC12A2 / Fold change vs veh, SLC12A2 / RFU, IBTK / Fold change vs veh, IBTK / RFU, ESF1 / Fold change vs veh, ESF1 / Fold change vs veh, TMEM50B / RFU, TAOK1 / Fold change vs veh, TAOK1 / RFU, ACBD3 / Fold change vs veh, ACBD3 / RFU, TMA16 / Fold change vs veh, TMA16 / RFU, RWDD3 / Fold change vs veh, RWDD3 / RFU, BCAT1 / Fold change vs veh, BCAT1 / RFU, EDEM3 / Fold change vs veh, EDEM3 / RFU, TMEM33 / Fold change vs veh, TMEM33 / RFU, WDR75 / Fold change vs veh, WDR75 / RFU, AHCTF1 / Fold change vs veh, AHCTF1 / RFU, TFRC / Fold change vs veh, TFRC / RFU, ZDHHC17 / Fold change vs veh, ZDHHC17 / RFU, NOM1 / Fold change vs veh, NOM1 / RFU, ARL8B / Fold change vs veh, ARL8B / RFU, ZBTB11 / Fold change vs veh, ZBTB11 / RFU, TAMM41 / Fold change vs veh, TAMM41 / RFU, KIAA1704 /// LOC100996395 / Fold change vs veh, KIAA1704 /// LOC100996395 / RFU, ING1 / Fold change vs veh, ING1 / RFU, TRMT61B / Fold change vs veh, TRMT61B / RFU, FUBP3 / Fold change vs veh, FUBP3 / RFU, TP53 / Fold change vs veh, TP53 / RFU, TNKS2 / Fold change vs veh, TNKS2 / RFU, ZFP14 / Fold change vs veh, ZFP14 / RFU, ACTR2 / Fold change vs veh, ACTR2 / RFU, PPP3R1 / Fold change vs veh, PPP3R1 / RFU, PIK3R1 / Fold change vs veh, PIK3R1 / RFU, HNRNPA1 / Fold change vs veh, HNRNPA1 / RFU, RNF170 / Fold change vs veh, RNF170 / RFU, ZNF28 / Fold change vs veh, ZNF28 / RFU, RNGTT / Fold change vs veh, RNGTT / RFU, OGT / Fold change vs veh, OGT / RFU, BRD1 / Fold change vs veh, BRD1 / RFU, MARS / Fold change vs veh, MARS / RFU, ZNF655 / Fold change vs veh, ZNF655 / RFU, FAHD1 / Fold change vs veh, FAHD1 / RFU, BDP1 / Fold change vs veh, BDP1 / RFU, LRRCC1 / Fold change vs veh, LRRCC1 / RFU, ARID1A / Fold change vs veh, ARID1A / RFU, ZNF146 / Fold change vs veh, ZNF146 / RFU, ZNF330 / Fold change vs veh, ZNF330 / RFU, GPN3 / Fold change vs veh, GPN3 / RFU, C9orf123 / Fold change vs veh, C9orf123 / RFU, N4BP2L2 / Fold change vs veh, N4BP2L2 / RFU, ARFIP1 / Fold change vs veh, ARFIP1 / RFU, FAM179B / Fold change vs veh, FAM179B / RFU, BCL10 / Fold change vs veh, BCL10 / RFU, UHRF1BP1L / Fold change vs veh, UHRF1BP1L / RFU, BET1 / Fold change vs veh, BET1 / RFU, CNOT2 / Fold change vs veh, CNOT2 / RFU, ZNF268 / Fold change vs veh, ZNF268 / Fold change vs veh, ZNF507 / RFU, DGCR2 / Fold change vs veh, DGCR2 / RFU, WDSUB1 / Fold change vs veh, WDSUB1 / Fold change vs veh, HSP90B1 /// MIR3652 / RFU, ADSS / Fold change vs veh, ADSS / RFU, GK / Fold change vs veh, GK / RFU, ZNF148 / Fold change vs veh, ZNF148 / RFU, TAF9 / Fold change vs veh, TAF9 / RFU, SLC1A5 / Fold change vs veh, SLC1A5 / RFU, SLMO2 / Fold change vs veh, SLMO2 / RFU, ABCC4 / Fold change vs veh, ABCC4 / RFU, LOC101060439 /// RAP1B / Fold change vs veh, LOC101060439 /// RAP1B / RFU, RFX7 / Fold change vs veh, RFX7 / RFU, GTPBP10 / Fold change vs veh, GTPBP10 / RFU, CNEP1R1 / Fold change vs veh, CNEP1R1 / RFU, BIVM-ERCC5 /// ERCC5 / Fold change vs veh, BIVM-ERCC5 /// ERCC5 / RFU, ILF3 / Fold change vs veh, ILF3 / RFU 11762660_at / Fold change /veh 11762660_at / RFU VCAN (11757783_s_at) / Fold change /veh VCAN (11757783_s_at) / RFU DDX43 (11728927_at) / Fold change /veh DDX43 (11728927_at) / RFU KRT8 (11758188_x_at) / Fold change /veh KRT8 (11758188_x_at) / RFU NKD1 (11759106_at) / Fold change /veh NKD1 (11759106_at) / RFU SRD5A1 (11742802_a_at) / Fold change /veh SRD5A1 (11742802_a_at) / RFU TPSAB1 /// TPSB2 (11721975_s_at) / Fold change /veh TPSAB1 /// TPSB2 (11721975_s_at) / RFU GSTM3 (11746129_a_at) / Fold change /veh GSTM3 (11746129_a_at) / RFU IL23R (11737362_x_at) / Fold change /veh IL23R (11737362_x_at) / RFU TMEM51 (11727254_a_at) / Fold change /veh TMEM51 (11727254_a_at) / RFU PIWIL2 (11732686_x_at) / Fold change /veh PIWIL2 (11732686_x_at) / RFU ORM1 (11744905_x_at) / Fold change /veh ORM1 (11744905_x_at) / RFU CCDC152 (11743942_at) / Fold change /veh CCDC152 (11743942_at) / RFU ECM1 (11717891_a_at) / Fold change /veh ECM1 (11717891_a_at) / RFU IL23R (11748794_a_at) / Fold change /veh IL23R (11748794_a_at) / RFU TNFAIP8L3 (11732012_x_at) / Fold change /veh TNFAIP8L3 (11732012_x_at) / RFU MBOAT4 (11741988_at) / Fold change /veh MBOAT4 (11741988_at) / RFU 11764193_at / Fold change /veh 11764193_at / RFU TMEM53 (11763286_at) / Fold change /veh TMEM53 (11763286_at) / RFU MAGEB2 (11727129_at) / Fold change /veh MAGEB2 (11727129_at) / RFU TMEM200A (11744735_a_at) / Fold change /veh TMEM200A (11744735_a_at) / RFU CCDC152 (11751479_a_at) / Fold change /veh CCDC152 (11751479_a_at) / RFU FAM211A (11726209_a_at) / Fold change /veh FAM211A (11726209_a_at) / RFU RGS16 (11746705_a_at) / Fold change /veh RGS16 (11746705_a_at) / RFU VCAN (11755009_s_at) / Fold change /veh VCAN (11755009_s_at) / RFU RHOB (11743442_s_at) / Fold change /veh RHOB (11743442_s_at) / RFU RGS16 (11720943_a_at) / Fold change /veh RGS16 (11720943_a_at) / RFU RGS16 (11720944_at) / Fold change /veh RGS16 (11720944_at) / RFU, VPS4B / Fold change vs veh, VPS4B / RFU, CREB1 / Fold change vs veh, CREB1 / RFU, DNAJC13 / Fold change vs veh, DNAJC13 / RFU, GNAQ / Fold change vs veh, GNAQ / RFU, CDK5R1 / Fold change vs veh, CDK5R1 / RFU, ZRANB3 / Fold change vs veh, ZRANB3 / RFU, CUL4A / Fold change vs veh, CUL4A / RFU, CCNY / Fold change vs veh, CCNY / RFU, UFL1 / Fold change vs veh, UFL1 / RFU, COG3 / Fold change vs veh, COG3 / RFU, DIAPH2 / Fold change vs veh, DIAPH2 / RFU, SKA2 / Fold change vs veh, SKA2 / RFU, AFF3 / Fold change vs veh, AFF3 / RFU, LMF1 / Fold change vs veh, LMF1 / RFU, IPO11 / Fold change vs veh, IPO11 / RFU, DFFB / Fold change vs veh, DFFB / RFU, FOXP1 / Fold change vs veh, FOXP1 / RFU, CARD8 / Fold change vs veh, CARD8 / RFU, STRN3 / Fold change vs veh, STRN3 / RFU, ADK / Fold change vs veh, ADK / RFU, RASSF2 / Fold change vs veh, RASSF2 / RFU, WIPF1 / Fold change vs veh, WIPF1 / RFU, LARP1B / Fold change vs veh, LARP1B / RFU, RASA1 / Fold change vs veh, RASA1 / RFU, RB1 / Fold change vs veh, RB1 / RFU, PPFIA1 / Fold change vs veh, PPFIA1 / RFU, MAT2A / Fold change vs veh, MAT2A / RFU, CCT5 / Fold change vs veh, CCT5 / RFU, WDR92 / Fold change vs veh, WDR92 / RFU, CUX1 / Fold change vs veh, CUX1 / RFU, TTC7A / Fold change vs veh, TTC7A / RFU, TMEM135 / Fold change vs veh, TMEM135 / RFU, DEPTOR / Fold change vs veh, DEPTOR / RFU, CPM / Fold change vs veh, CPM / RFU, DNAJB6 / Fold change vs veh, DNAJB6 / RFU, CACNA2D3 / Fold change vs veh, CACNA2D3 / RFU, DTX4 / Fold change vs veh, DTX4 / RFU, TFCP2 / Fold change vs veh, TFCP2 / RFU, GMCL1 /// GMCL1P1 / Fold change vs veh, GMCL1 /// GMCL1P1 / RFU, AEBP2 / Fold change vs veh, AEBP2 / RFU, SNHG1 /// SNORD22 /// SNORD25 /// SNORD26 /// SNORD27 /// SNORD28 /// SNORD29 /// SNORD31 / Fold change vs veh, SNHG1 /// SNORD22 /// SNORD25 /// SNORD26 /// SNORD27 /// SNORD28 /// SNORD29 /// SNORD31 / Fold change (Aza/veh), C12orf56 (ProbeSet 11735607_a_at) / Fold change (ACY-1035/veh), C12orf56 (ProbeSet 11735607_a_at) / Fold change (Aza/veh), FGFR1OP (ProbeSet 11751329_s_at) / Fold change (ACY-1035/veh), FGFR1OP (ProbeSet 11751329_s_at) / Fold change (Aza/veh), VPS36 (ProbeSet 11739960_a_at) / Fold change (ACY-1035/veh), VPS36 (ProbeSet 11739960_a_at) / RFU SYPL1 (11715823_x_at) / Fold change /veh SYPL1 (11715823_x_at) / RFU IGFBP7 (11715501_s_at) / Fold change /veh IGFBP7 (11715501_s_at) / RFU REEP3 (11722064_at) / Fold change /veh REEP3 (11722064_at) / RFU IGLL1 (11728026_x_at) / Fold change /veh IGLL1 (11728026_x_at): dose or concentration left out as unconfirmed. To be noted: MV-4-11 cells, 48 hours.

In the case of `Nc1ccc(-c2cccs2)cc1NC(=O)c1ccc2c(c1)cc(C1CC1)n2CCN1CCOCC1` [ACY-1035], the “Fold change /veh CLDN22 /// WWC2 (11732394_at)” value was 1.04.
